Legend:
[1] = molecular target: T1, CB1 receptor (Homo sapiens, UniProt P21554); test: GTPγ[35S] functional binding assay, CB1 membranes; type: biochemical; set-up: Brussels, Belgium; host or cells: CHO-K1; Emax: reference not given here; conditions: GTPγ[35S] binding; for EC50: n.a. = no activity detected at the highest concentration tested, read-out: CB1 EC 50
[2] = molecular target: T1, CB1 receptor; test: Competition binding assay, [3H]-CP55,940 displacement, CB1 CHO-K1 membranes
Description: (§1) CHO-K1 cells expressing CB1 or CB2 receptors (which were purchased from EuroScreen; Brussels, Belgium) were grown to confluency (20-40×10^6 cells) in 10 cm dishes. Cells were lysed by adding 10 mL/dish ice-cold hypotonic buffer (2.5 mM MgCl2, 50 mM HEPES, pH 7.4). Cell lysates were removed using a cell scraper and homogenized 30 seconds with a BioSpec Tissue Tearer™ (Racine, Wis.). Membranes were collected by centrifugation at 30,000 g for 15 min at 4° C. and pellets resuspended in hypotonic buffer to a final concentration of 1-3 mg/mL.
(§2) Membranes (CB1 or CB2 CHO-K1: 1 μg/well) were incubated at room temperature for 1 hour with 0.5 nM [^3H]-CP55,940 in 500 μL of assay buffer (5 mM MgCl2, 5 mg/mL BSA, 2.5 mM EDTA and 50 mM Tris-HCl, pH 7.4) in the presence of increasing concentrations of unlabeled competitors, e.g. WIN55, 212-2 (a CB1 receptor agonist available from Sigma-Aldrich, St. Louis, Mo.) or ligand of interest. The final concentration of DMSO was 5% . Reactions were terminated by rapid filtration using a 96-well filtration apparatus (Brandel, Gaithersburg, Md.) onto GE/C filter plates (PerkinElmer Life Sciences; Boston, Mass.) pretreated with polyethylenimine 0.5% (w/v). The plates were washed three times with 500 μL of ice-cold assay buffer. Filter plates were subsequently dried at 50° C. for 2-3 hours. Fifty microliters per well BetaScint 20 (PerkinElmer) scintillation cocktail was added and plates counted in a TopCount (PerkinElmer) for 1 min/well.
(§3) Data were analyzed using GraphPad PRISM™, v. […] The concentrations of unlabeled competitors that yield 50% displacement (IC50 values) were calculated from each curve by a non-linear regression analysis fined to a one-site model. In separate experiments, equilibrium dissociation constants (Kd values) were determined for each receptor. […] All Ki values are presented as mean±SEM of n determinations.

[3] = molecular target: CB2 receptor (Homo sapiens, UniProt P34972); test: Competition binding assay, [3H]-CP55,940 displacement, CB2 CHO-K1 membranes
Chain of CB2 receptor (P34972 whole entry): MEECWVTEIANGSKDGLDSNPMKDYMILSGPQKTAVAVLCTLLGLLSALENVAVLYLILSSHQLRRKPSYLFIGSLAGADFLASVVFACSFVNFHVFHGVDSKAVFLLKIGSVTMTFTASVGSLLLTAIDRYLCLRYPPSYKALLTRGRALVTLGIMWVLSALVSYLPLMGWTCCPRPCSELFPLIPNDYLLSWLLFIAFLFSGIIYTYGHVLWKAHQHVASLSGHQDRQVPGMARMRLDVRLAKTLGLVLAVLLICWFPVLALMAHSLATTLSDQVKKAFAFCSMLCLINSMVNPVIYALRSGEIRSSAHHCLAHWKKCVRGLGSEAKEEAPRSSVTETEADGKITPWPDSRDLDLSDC
Description: as §1, §2, §3

T1 sequence (P21554 whole entry): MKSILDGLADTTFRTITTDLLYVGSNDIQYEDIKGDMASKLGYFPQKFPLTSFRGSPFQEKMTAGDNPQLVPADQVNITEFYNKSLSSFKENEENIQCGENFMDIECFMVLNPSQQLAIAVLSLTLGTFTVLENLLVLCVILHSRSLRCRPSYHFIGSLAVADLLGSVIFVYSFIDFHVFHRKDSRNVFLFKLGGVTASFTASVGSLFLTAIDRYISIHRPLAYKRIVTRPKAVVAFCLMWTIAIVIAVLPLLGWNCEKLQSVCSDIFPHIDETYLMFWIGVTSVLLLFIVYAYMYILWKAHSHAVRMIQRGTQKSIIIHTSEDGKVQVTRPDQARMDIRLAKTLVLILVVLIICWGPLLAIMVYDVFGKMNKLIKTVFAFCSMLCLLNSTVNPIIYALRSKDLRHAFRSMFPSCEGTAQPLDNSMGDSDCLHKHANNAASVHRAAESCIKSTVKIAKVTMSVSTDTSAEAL

Row | SMILES | Emax [1] | EC50 [1] | Ki [2] | Ki [3]
1 | O=C(Nc1sc2c(c1C(=O)N1CCCCC1)CCCCC2)[C@H]1CCCN1S(=O)(=O)c1ccccc1 [AAA(a)] | 80% | 702 nM | 4.7 nM | 4.3 nM
2 | O=C(Nc1sc2c(c1C(=O)N1CCCCC1)CCCCC2)[C@@H]1CCCN1S(=O)(=O)c1ccccc1 [AAA(b)] | 8% | – | 366 nM | –
3 | O=C(Nc1sc2c(c1C(=O)N1CCCCC1)CCCCC2)[C@H]1CCCN1S(=O)(=O)c1ccc(F)cc1 [AAB(a)] | 68% | 1910 nM | 43.5 nM | 35.8 nM
4 | Cc1ccc(S(=O)(=O)N2CCC[C@@H]2C(=O)Nc2sc3c(c2C(=O)N2CCCCC2)CCCCC3)cc1 [AAC(a)] | 8% | – | 261 nM | 154 nM
5 | CS(=O)(=O)N1CCC[C@@H]1C(=O)Nc1sc2c(c1C(=O)N1CCCCC1)CCCCC2 [AAD(a)] | – | – | 2190 nM | –
6 | O=C(Nc1sc2c(c1C(=O)N1CCCCC1)CCCCC2)[C@H]1CCCN1S(=O)(=O)c1cccs1 [AAF(a)] | 150% | 425 nM | 7.3 nM | 4.5 nM
7 | CCOC(=O)c1c(NC(=O)[C@H]2CCCN2S(=O)(=O)c2ccccc2)sc2c1CCCCC2 [ABE(a)] | – | > 25000 nM | 15.1 nM | 11.5 nM
8 | O=C(Nc1sccc1C(=O)N1CCCCC1)[C@H]1CCCN1S(=O)(=O)c1ccccc1 [CAA(a)] | – | – | 1890 nM | –
9 | O=C(Nc1ccsc1C(=O)N1CCCCC1)[C@H]1CCCN1S(=O)(=O)c1ccccc1 [DAA(a)] | – | – | 1240 nM | –
10 | O=C(Nc1sc2c(c1C(=O)N1CCCCC1)CCCCC2)[C@H]1CCCN1C(=O)c1ccccc1 [EAA(a)] | – | – | 9290 nM | –
11 | O=C(Nc1ccccc1C(=O)N1CCCCC1)[C@H]1CCCN1S(=O)(=O)c1ccccc1 [GAA(a)] | – | – | 1130 nM | –

Reference: patent US8084612B2, “Proline analogs as ligands for cannabinoid receptors” (Purdue Pharma L.P., priority 2008, dated 2011)
